Measured values from patent publication US20250098679A1, “HERBICIDAL PYRIDONE DERIVATIVES” (SYNGENTA CROP PROTECTION AG, priority 2021, published 2025).

Key:
Type in all cases: in vivo
Conditions in all cases: evaluated after 13 days
[1] = test system: Amaranthus palmeri (AMAPA); test: Post-emergence Test, Amaranthus palmeri (AMAPA); parameters: key: 5=81-100%, 4=61-80%, 3=41-60%, 2=21-40%, 1=0-20% damage
Description: (§1) Seeds of a variety of test species are sown in standard soil in pots (Setaria faberi (SETFA), Echinochloa crus-galli (ECHCG), Zea mays (ZEAMX), Ipomoea hederacea (IPOHE), Amaranthus palmeri (AMAPA), Amaranthus retoflexus (AMARE)). After 8 days cultivation under controlled conditions in a glasshouse (at 24° C./16° C., day/night; 14 hours light; 65% humidity), the plants are sprayed with an aqueous spray solution derived from the formulation of the technical active ingredient in acetone/water (50:50) solution containing 0.5% Tween 20 (polyoxyethelyene sorbitan monolaurate, CAS RN 9005-64-5). Compounds are applied at 1000 g/ha unless otherwise stated. The test plants are then grown in a glasshouse under controlled conditions in a glasshouse (at 24° C./16° C., day/night; 14 hours light; 65% humidity) and watered twice daily. After 13 days the test is evaluated for the percentage damage caused to the plant. The biological activities are shown in the following table on a five-point scale (5=81-100%; 4=61-80%; 3=41-60%; 2=21-40%; 1=0-20%; -=not tested).

Zea mays (ZEAMX) = test: Post-emergence Test, Zea mays (ZEAMX); parameters: key to percentage damage caused to the plant, ZEAMX (five-point scale): 5=81-100%, 4=61-80%, 3=41-60%, 2=21-40%, 1=0-20% damage
Description: as §1

[2] = test system: Amaranthus retoflexus (AMARE); test: Post-emergence Test, Amaranthus retoflexus (AMARE); parameters: key to percentage damage caused to the plant, AMARE (five-point scale): 5=81-100%, 4=61-80%, 3=41-60%, 2=21-40%, 1=0-20% damage
Description: as §1

[3] = test system: Ipomoea hederacea (IPOHE); test: Post-emergence Test, Ipomoea hederacea (IPOHE); parameters: key to percentage damage caused to the plant, IPOHE (five-point scale): 5=81-100%, 4=61-80%, 3=41-60%, 2=21-40%, 1=0-20% damage
Description: as §1

[4] = test system: Echinochloa crus-galli (ECHCG); test: Post-emergence Test, Echinochloa crus-galli (ECHCG); parameters: key to percentage damage caused to the plant, ECHCG (five-point scale): 5=81-100%, 4=61-80%, 3=41-60%, 2=21-40%, 1=0-20% damage
Description: as §1

Setaria faberi (SETFA) = test: Post-emergence Test, Setaria faberi (SETFA); parameters: key to percentage damage caused to the plant, SETFA (five-point scale): 5=81-100%, 4=61-80%, 3=41-60%, 2=21-40%, 1=0-20% damage
Description: as §1

SMILES	percentage damage caused to the plant, AMAPA (five-point scale) ([1]; 250 g/Ha)	percentage damage caused to the plant, AMAPA (five-point scale) ([1]; 1000 g/ha)	percentage damage caused to the plant, ZEAMX (five-point scale) (Zea mays (ZEAMX); 250 g/Ha)	percentage damage caused to the plant, ZEAMX (five-point scale) (Zea mays (ZEAMX); 1000 g/ha)	percentage damage caused to the plant, AMARE (five-point scale) ([2]; 250 g/Ha)	percentage damage caused to the plant, AMARE (five-point scale) ([2]; 1000 g/ha)	percentage damage caused to the plant, IPOHE (five-point scale) ([3]; 250 g/Ha)	percentage damage caused to the plant, IPOHE (five-point scale) ([3]; 1000 g/ha)	percentage damage caused to the plant, ECHCG (five-point scale) ([4]; 250 g/Ha)	percentage damage caused to the plant, SETFA (five-point scale) (Setaria faberi (SETFA); 1000 g/ha)	percentage damage caused to the plant, ECHCG (five-point scale) ([4]; 1000 g/ha)	also measured
CCn1c(Cn2nc(C(F)(F)F)cc2C2CC2)cc(=O)c(C(=O)O)c1-c1ccc(Cl)c(Cl)c1 [Compound 184, 6-[[5-cyclopropyl-3-(trifluoromethyl)pyrazol-1-yl]methyl]-2-(3,4-dichlorophenyl)-1-ethyl-4-oxo-pyridine-3-carboxylic acid]	1 (1=0-20%)	3 (3=41-60%)	1 (1=0-20%)	3 (3=41-60%)	1 (1=0-20%)	3 (3=41-60%)	1 (1=0-20%)	4 (4=61-80%)	3 (3=41-60%)	4 (4=61-80%)		
CCn1c(Cn2cc3ccccc3n2)cc(=O)c(C(=O)O)c1-c1ccc(Cl)c(Cl)c1 [Compound 106, 2-(3,4-dichlorophenyl)-1-ethyl-6-(indazol-2-ylmethyl)-4-oxo-pyridine-3-carboxylic acid]	0	1 (1=0-20%)	0	0	0	1 (1=0-20%)	0	3 (3=41-60%)	2 (2=21-40%)	1 (1=0-20%)	1 (1=0-20%)	percentage damage caused to the plant, SETFA (five-point scale) (Setaria faberi (SETFA); 250 g/Ha): 0
CCn1c(C(C)n2ccc(C(F)(F)F)n2)cc(=O)c(C(=O)O)c1-c1ccc(Cl)c(Cl)c1 (stereo not drawn) [Compound 172, 2-(3,4-dichlorophenyl)-1-ethyl-4-oxo-6-[1-[3-(trifluoromethyl)pyrazol-1-yl]ethyl]pyridine-3-carboxylic acid]	1 (1=0-20%)	2 (2=21-40%)	0	1 (1=0-20%)	1 (1=0-20%)	2 (2=21-40%)	0	1 (1=0-20%)	0	1 (1=0-20%)		
C/C=C/C(=O)Nc1ccn(Cc2cc(=O)c(C(=O)O)c(-c3ccc(Cl)c(Cl)c3)n2CC)n1 [Compound 155, 6-[[3-[[(E)-but-2-enoyl]amino]pyrazol-1-yl]methyl]-2-(3,4-dichlorophenyl)-1-ethyl-4-oxo-pyridine-3-carboxylic acid]	1 (1=0-20%)	1 (1=0-20%)	0	0	1 (1=0-20%)	0	1 (1=0-20%)	0	1 (1=0-20%)	0	1 (1=0-20%)	percentage damage caused to the plant, SETFA (five-point scale) (Setaria faberi (SETFA); 250 g/Ha): 1 (1=0-20%)
CCn1c(Cn2ccc(C(F)(F)F)n2)cc(=O)c(C(=O)O)c1-c1ccc(S(C)(=O)=O)c(Cl)c1 [Compound 129, 2-(3-chloro-4-methylsulfonyl-phenyl)-1-ethyl-4-oxo-6-[[3-(trifluoromethyl)pyrazol-1-yl]methyl]pyridine-3-carboxylic acid]		0		1 (1=0-20%)		0		0		0	1 (1=0-20%)	
CCn1c(Cn2ccc(-c3ccco3)n2)cc(=O)c(C(=O)O)c1-c1ccc(Cl)c(Cl)c1 [Compound 200]												Post-emergence Test AMAPA, percentage damage caused to the plant (five-point scale) ([1]; 250 g/Ha (*)): 0; Post-emergence Test AMAPA, percentage damage caused to the plant (five-point scale) ([1]; 1000 g/ha): 0; Post-emergence Test ZEAMX, percentage damage caused to the plant (five-point scale) (Zea mays (ZEAMX); 250 g/Ha (*)): 1 (1=0-20%); Post-emergence Test ZEAMX, percentage damage caused to the plant (five-point scale) (Zea mays (ZEAMX); 1000 g/ha): 1 (1=0-20%); Post-emergence Test AMARE, percentage damage caused to the plant (five-point scale) ([2]; 250 g/Ha (*)): 0; Post-emergence Test AMARE, percentage damage caused to the plant (five-point scale) ([2]; 1000 g/ha): 0; Post-emergence Test IPOHE, percentage damage caused to the plant (five-point scale) ([3]; 250 g/Ha (*)): 0; Post-emergence Test IPOHE, percentage damage caused to the plant (five-point scale) ([3]; 1000 g/ha): 1 (1=0-20%); Post-emergence Test ECHCG, percentage damage caused to the plant (five-point scale) ([4]; 250 g/Ha (*)): 1 (1=0-20%); Post-emergence Test SETFA, percentage damage caused to the plant (five-point scale) (Setaria faberi (SETFA); 1000 g/ha): 1 (1=0-20%)
CCn1c(Cn2cnc(F)c2)cc(=O)c(C(=O)O)c1-c1ccc(Cl)c(Cl)c1 [Compound 77, 2-(3,4-dichlorophenyl)-1-ethyl-6-[(4-fluoroimidazol-1-yl)methyl]-4-oxo-pyridine-3-carboxylic acid]		1 (1=0-20%)		1 (1=0-20%)		1 (1=0-20%)		0		0	1 (1=0-20%)	
CCn1c(Cn2nc(C(F)(F)F)c3c2CCOC3)cc(=O)c(C(=O)O)c1-c1ccc(Cl)c(Cl)c1 [Compound 107, 2-(3,4-dichlorophenyl)-1-ethyl-4-oxo-6-[[3-(trifluoromethyl)-6,7-dihydro-4H-pyrano[4,3-c]pyrazol-1-yl]methyl]pyridine-3-carboxylic acid]	0	1 (1=0-20%)	0	0	0	1 (1=0-20%)	0	2 (2=21-40%)	2 (2=21-40%)	1 (1=0-20%)	1 (1=0-20%)	percentage damage caused to the plant, SETFA (five-point scale) (Setaria faberi (SETFA); 250 g/Ha): 0
CCn1c(Cn2ccc(-c3cccc(Cl)c3)n2)cc(=O)c(C(=O)O)c1-c1ccc(Cl)c(Cl)c1 [Compound 202, 6-[[3-(3-chlorophenyl)pyrazol-1-yl]methyl]-2-(3,4-dichlorophenyl)-1-ethyl-4-oxo-pyridine-3-carboxylic acid]												Post-emergence Test AMAPA, percentage damage caused to the plant (five-point scale) ([1]; 1000 g/ha): 0; Post-emergence Test ZEAMX, percentage damage caused to the plant (five-point scale) (Zea mays (ZEAMX); 1000 g/ha): 1 (1=0-20%); Post-emergence Test AMARE, percentage damage caused to the plant (five-point scale) ([2]; 1000 g/ha): 0; Post-emergence Test IPOHE, percentage damage caused to the plant (five-point scale) ([3]; 1000 g/ha): 1 (1=0-20%); Post-emergence Test SETFA, percentage damage caused to the plant (five-point scale) (Setaria faberi (SETFA); 1000 g/ha): 1 (1=0-20%)
CCn1c(Cn2nc(C#N)cc2C#N)cc(=O)c(C(=O)O)c1-c1ccc(Cl)c(Cl)c1 [Compound 132, 2-(3,4-dichlorophenyl)-6-[(3,5-dicyanopyrazol-1-yl)methyl]-1-ethyl-4-oxo-pyridine-3-carboxylic acid]				1 (1=0-20%)		0		0		1 (1=0-20%)	1 (1=0-20%)	
CCn1c(Cn2ccc(Cl)n2)cc(=O)c(C(=O)O)c1-c1ccc(Cl)c(C#N)c1 [Compound 131, 2-(4-chloro-3-cyano-phenyl)-6-[(3-chloropyrazol-1-yl)methyl]-1-ethyl-4-oxo-pyridine-3-carboxamide acid]		0		0		0		1 (1=0-20%)		2 (2=21-40%)		
